Assay results: patent US12673953B2, “Process for preparing an amorphous form of 2-[3-[4-amino-3-(2-fluoro-4-phenoxyphenyl)pyrazolo[3,4-d]pyrimidin-1-yl]piperidine-1-carbonyl]-4-methyl-4-[4-(oxetan-3-yl)piperazin-1-yl]pent-2-enenitrile” (Principia Biopharma Inc., priority 2019, dated 2026)

What was measured:
Format in all cases: physicochemical
[1] = Wet particle size distribution by laser diffraction (Malvern Mastersizer 3000); conditions: dispersant heptane with 0.2% Span 80
Method: Wet particle size distributions were measured using a Malvern Mastersizer 3000 laser diffraction particle size analyzer, with stir speed set at 2200 rpm. Heptane with 0.2% by volume of Span 80 was used as dispersant. To obtain distribution measurements, the Hydro MV medium volume automated dispersion unit was filled with dispersant and aligned. The background was then measured. 80 to 100 mg of sample weighed into a 20 mL vial, to which approximately 3 mL of dispersant was added. The mass was adjusted based on the particle size, with obscuration between 5% and 16%. The whole sample was added to the Hydro MV unit, and the sample was analyzed five times after a 160 second pre-measurement delay. Analysis time was 20 seconds (10 seconds with the red laser, 10 seconds with the blue laser) with no delay between measurements. Data obtained was processed using Mie theory with a sample refractive index of 1.69 and absorption index of 0.1, using the general purpose model with normal sensitivity and the non-spherical particle type. 15 sets of raw data were averaged to form the Global Mean, which represents the average for a sample. If the sample was determined to be variable, further preparations were examined to determine which results were anomalous. Any anomalous results were discarded. Samples were thoroughly mixed prior to sampling (e.g., some samples were aliquoted using a spinning […]).

[2] = Mean bulk density, mean tapped density and Hausner ratio (modified USP <616>); conditions: for Hausner ratio: ratio of initial volume to constant volume (Vo/Vf)
Method: Mean bulk density and mean tapped density were determined using a modified method based on USP <616>. Powder was poured into a clean, dry pre-weighed 25 mL cylinder. Powder was added to a total volume of 20 mL to 25 mL without compacting the sample. The mass and initial volume (Vo) of the powder were recorded. The mean bulk density was determined as the average of the mass over initial volume across multiple samples. To determine mean tapped density, the sample was tapped using a Copley JV2000 tapped density tester using the following number of taps: 500, 750, and sets of 1250 taps up to 10,000. The volume was recorded after each set of taps, and the sample was tapped until it reached a constant volume (Vf). The mean tapped density was determined as the average of mass over constant volume across multiple samples. Each sample was analyzed in duplicate. The Hausner ratio was calculated as the ratio of initial volume to the constant volume (Vo/Vf).

[3] = Thermogravimetric analysis (TA Instruments Q5000 TGA)
Method: Thermal gravimetric analysis of the samples was performed using the TA Instruments Q5000 TGA. Table 5 provides thermogravimetric analysis data for several distinct solid forms of Compound (I), including mass loss information from multiple replicates across different temperature ranges. As above, Comparator 1 corresponds to the solid form of Compound (I) prepared substantially in accordance with the process detailed in Step 1A in Example 1 of WO 2015/127310. Also, as above, Comparator 2 corresponds to the solid form of Compound (I) prepared substantially in accordance with the process detailed in Example 31 of WO 2014/039899. Comparator 3 corresponds to the solid form of Compound (I) prepared substantially in accordance with the process detailed in Step 1 in Example 1 of WO 2015/127310.

[4] = Modulated differential scanning calorimetry, glass transition temperature (TA Instrument Q2000 DSC); conditions: for Tg at 25° C., 0% RH: 0% relative humidity
Method: Modulated differential scanning calorimetry (DSC) analysis was completed with a TA Instrument Q2000 DSC. The samples were heated at 2° C. min^−1, temperature modulation parameters of 0.318° C. (amplitude), and over a temperature range of 6-80° C. to 200° C. The samples were analyzed using a closed aluminum pan.

Row | Wet particle size distribution D10 [1] [μm] | Wet particle size distribution D50 [1] [μm] | Wet particle size distribution D90 [1] | Mean bulk density [2] [g/cc] | Mean tapped density [2] [g/cc] | Hausner ratio [2] | Tg at 25° C., 0% RH [4] [°C] | Structure (SMILES) | other results
1 | 1.9 | – | 476-683 μm | – | – | 1.2 | – | CC(C)(C=C(C#N)C(=O)N1CCCC(n2nc(-c3ccc(Oc4ccccc4)cc3F)c3c(N)ncnc32)C1)N1CCN(C2COC2)CC1 (stereo not shown) [Compound (I) prepared by a precipitation process described h] [2-[3-[4-amino-3-(2-fluoro-4-phenoxy-phenyl)pyrazolo[3,4-d]pyrimidin-1-yl]piperidine-1-carbonyl]-4-methyl-4-[4-(oxetan-3-yl)piperazin-1-yl]pent-2-enenitrile] | Tg at 25° C., 60% RH ([4]; 60% relative humidity, listed as Compound (I) prepared by precipitation process described herein (not micronized)): 69.6 °C; Mass loss during TGA ([3]; between 30° C. and 190° C.): 0.8% mass loss between 30 °C and 190° C.;; Mass loss during TGA ([3]; between 40° C. and 205° C.): 0.4% mass loss between 40 °C and 205° C.;; Mass loss during TGA ([3]; between 40° C. and 225° C.): 0.7% mass loss between 40 °C and 225 °C; Mass loss during TGA ([3]; between 43° C. and 230° C.): 1.9% mass loss between 43 °C and 230° C.;; Mass loss during TGA ([3]; between 44° C. and 230° C.): 1.0% mass loss between 44 °C and 230 °C
2 | 5.24 | 13.3 | 28.4 μm | 0.20 | 0.28 | 1.4 | – | CC(C)(C=C(C#N)C(=O)N1CCCC(n2nc(-c3ccc(Oc4ccccc4)cc3F)c3c(N)ncnc32)C1)N1CCN(C2COC2)CC1 (stereo not shown) [Compound (I) prepared by a spray drying process described he] [2-[3-[4-amino-3-(2-fluoro-4-phenoxy-phenyl)pyrazolo[3,4-d]pyrimidin-1-yl]piperidine-1-carbonyl]-4-methyl-4-[4-(oxetan-3-yl)piperazin-1-yl]pent-2-enenitrile] | Tg at 25° C., 0% RH ([4]; listed as Compound (I) prepared by spray drying process described herein): 93.8 °C; Mass loss during TGA ([3]; between 35° C. and 230° C.): 1.2% mass loss between 35 °C and 230 °C

Second part, the compound before the results:

Row | Structure (SMILES) | Wet particle size distribution D10 [1] [μm] | Wet particle size distribution D50 [1] [μm] | Wet particle size distribution D90 [1] | Mean bulk density [2] [g/cc] | Mean tapped density [2] [g/cc] | Hausner ratio [2] | Tg at 25° C., 0% RH [4] [°C] | other results
3 | CC(C)(C=C(C#N)C(=O)N1CCCC(n2nc(-c3ccc(Oc4ccccc4)cc3F)c3c(N)ncnc32)C1)N1CCN(C2COC2)CC1 (stereo not shown) [Comparator 1, 2-[3-[4-amino-3-(2-fluoro-4-phenoxy-phenyl)pyrazolo[3,4-d]pyrimidin-1-yl]piperidine-1-carbonyl]-4-methyl-4-[4-(oxetan-3-yl)piperazin-1-yl]pent-2-enenitrile] | 18.3 | 237 | 694 μm | 0.28 | 0.39 | 1.4 | – | Mass loss during TGA ([3]; between 40° C. and 118° C.): 3.3% mass loss between 40 °C and 118 °C; Mass loss during TGA ([3]; between 118° C. and 237° C.): 3.2% mass loss between 118 °C and 237 °C
4 | CC(C)(C=C(C#N)C(=O)N1CCCC(n2nc(-c3ccc(Oc4ccccc4)cc3F)c3c(N)ncnc32)C1)N1CCN(C2COC2)CC1 (stereo not shown) [Comparator 2, 2-[3-[4-amino-3-(2-fluoro-4-phenoxy-phenyl)pyrazolo[3,4-d]pyrimidin-1-yl]piperidine-1-carbonyl]-4-methyl-4-[4-(oxetan-3-yl)piperazin-1-yl]pent-2-enenitrile] | 56.9 | 258 | 575 μm | 0.20 | 0.27 | 1.4 | 90.1 | Mass loss during TGA ([3]; between 40° C. and 135° C.): 3.7% mass loss between 40 °C and 135 °C; Mass loss during TGA ([3]; between 135° C. and 233° C.): 2.3% mass loss between 135 °C and 233 °C
5 | CC(C)(C=C(C#N)C(=O)N1CCCC(n2nc(-c3ccc(Oc4ccccc4)cc3F)c3c(N)ncnc32)C1)N1CCN(C2COC2)CC1 (stereo not shown) [Comparator 3, 2-[3-[4-amino-3-(2-fluoro-4-phenoxy-phenyl)pyrazolo[3,4-d]pyrimidin-1-yl]piperidine-1-carbonyl]-4-methyl-4-[4-(oxetan-3-yl)piperazin-1-yl]pent-2-enenitrile] | – | – | – | – | – | – | 90.1 | Mass loss during TGA ([3]; between 30° C. and 100° C.): 3.8% mass loss between 30 °C and 100 °C; Mass loss during TGA ([3]; between 100° C. and 140° C.): 17.6% mass loss between 100 °C and 140 °C
